“Also recorded” adds a separate entry of the source. Read-outs that look alike come from different tables or passages of the source.
What was measured:
yeast alpha-glucosidase = test: Alpha-glucosidase inhibition assay; assay type: biochemical; conditions: isolated compounds
Description: Extracts and fractions EA1–EA16 were evaluated for the alpha-glucosidase inhibition to choose the fraction for further analysis. The isolation of 1–11 was described in Scheme 1 using silica gel CC with various solvent systems.
Evaluation of the inhibitory activity of 1–11 against yeast alpha-glucosidase followed a previous procedure.[34]

alpha-glucosidase [1] = conditions: cited from earlier work; for IC50: read-out: Alpha-glucosidase inhibition IC50
alpha-glucosidase [2] = test: Kinetic study of alpha-glucosidase inhibition (Lineweaver–Burk plots); assay type: biochemical
Description: To better understand the kinetic parameters of alpha-glucosidase inhibition by 2, the enzyme activity was assessed by varying substrate concentrations in the absence or presence of 2. The inhibition type was identified through Lineweaver–Burk plots (Fig. 3A), where the reciprocal of the reaction rate (1/V) was graphed against the reciprocal of substrate concentrations (1/[S]). This approach allowed monitoring the effect of the inhibitor on both Km and Vmax. […] The inhibition constant for the inhibitor binding with free enzyme (Ki) was determined from a plot of the slope (Km/Vm) versus the inhibitor concentration (Fig. 3B).
The kinetics of 2 against alpha-glucosidase was conducted by varying the concentration of p-NPG substrate in the absence or presence of tested compound at different concentrations (0, 30.0, and 60.0 μM). The Lineweaver–Burk plots were used to determine the inhibition type. In addition, the inhibition constant Ki is an indication of the potency of an inhibitor and was determined from secondary plots of 1/V vs. [I].[35] The Lineweaver–Burk double-reciprocal plot (1/V vs. 1/[S]) was employed to discern the Vmax, […], and mode of inhibition (Fig. 10). [drawing 1]

[3] = target: protein tyrosine phosphatase 1B; set-up: method as in PMID 34111550; conditions: isolated from H. forrestii; read-out: PTP1B inhibition IC50; cited from earlier work

| Compound | IC50 (yeast alpha-glucosidase) [µM] | further results |
| --- | --- | --- |
| CC(C)=CCCC1(C)C(CC=C(C)C)CC2(CC=C(C)C)C(=O)C(C(=O)c3ccccc3)=C(O)C1C2=O (stereo not drawn) [Compound 1, epi-guttiferone Q] | 60.7 ± 3.6 | – |
| CC(C)=CCC/C(C)=C/C[C@H]1C[C@]2(CC=C(C)C)C(=O)[C@@](CC=C(C)C)(C(=O)C(C(=O)c3ccc(O)c(O)c3)=C2O)[C@]1(C)CCC=C(C)C [Compound 2, guttiferone I] | 29.4 ± 1.2 | IC50 (alpha-glucosidase [1]; compound from G. cowa): 13.1 µM; Inhibition type (alpha-glucosidase [2]; Lineweaver–Burk plots, Vmax constant, Km increased): competitive inhibitor; also recorded: competitive type; Ki (alpha-glucosidase [2]; from plot of slope (Km/Vm) versus inhibitor concentration, p-NPG substrate, read-out: Inhibition constant Ki): 69.2 µM |
| CC(C)=CCCC(C)=CCC12CC3CC4C(C)(C)CCC4(C1=O)C(=O)C(C(=O)c1ccccc1)(C2=O)C3(C)C (stereo not shown) [Compound 4, hypersampsone I] | 131 ± 4.6 | – |
| C=C(C)C1CC23C(=O)C4(CC=C(C)CCC=C(C)C)CC(CC2C1(C)C)C(C)(C)C(C(=O)c1ccccc1)(C4=O)C3=O (stereo not shown) [Compound 5, sampsonione D] | 116 ± 2.7 | – |
| CC(C)=CCC/C(C)=C/C[C@]12C[C@@H]3C[C@H]4C(C)(C)CC[C@@]4(C1=O)C(=O)[C@](C(=O)c1ccccc1)(C2=O)C3(C)C [Compound 6, sampsonione H] | 56.9 ± 1.9 | IC50 [3]: 6.63 ± 2.4 µM |
| COc1cc2oc3cc(O)c(OC)c(CC=C(C)C)c3c(=O)c2c(O)c1CC=C(C)C [Compound 7, β-mangostin] | > 200 | – |
| COc1c(O)cc2oc3cc(O)c(CC=C(C)C)c(O)c3c(=O)c2c1CC=C(C)C [Compound 8, α-mangostin] | > 200 | – |
| COc1c(O)cc2oc3cc(O)c4c(c3c(=O)c2c1CC=C(C)C)OC(C)(C)C(O)C4 (stereo not shown) [Compound 11, 11-hydroxy-1-isomangostin] | > 200 | – |
| CC(C)=CCCC1(C)C(CC=C(C)C)CC2(CC=C(C)C)C(=O)C(C(=O)c3ccccc3)=C(O)C1C2=O (stereo not shown) [Guttiferone Q] | – | IC50 (alpha-glucosidase [1]): 118 µM |
| C[C@H]1O[C@H](O[C@H]2[C@H](O)[C@@H](O)[C@@H](O[C@H]3[C@H](O)[C@@H](O)C(O)O[C@@H]3CO)O[C@@H]2CO)[C@H](O)[C@@H](O)[C@@H]1N[C@H]1C=C(CO)[C@@H](O)[C@H](O)[C@H]1O (stereo partly shown) [acarbose] | – | Inhibition type (alpha-glucosidase [1]; positive control, previous work): competitive inhibitor |
| CC(C)=CCCC1(C)C(CC=C(C)C)CC23CCC(C)(C)OC2=C(C(=O)c2ccc(O)c(O)c2)C(=O)C1(CC=C(C)C)C3=O (stereo not shown) [schomburgkianone I] | – | IC50 (alpha-glucosidase [1]; isolated from Thai G. schomburgkiana sources): 21.2 µM |
| guttiferone K [Compound 3] | 16.2 ± 0.7 | – |

Source: article PMC10694853, “Bio-guided isolation of alpha-glucosidase inhibitory compounds from Vietnamese Garcinia schomburgkiana fruits: in vitro and in silico studies” (RSC Advances, 2023)
